Where a name gives a salt, the structure may show the parent alone.
Tested on: U2OS cells
Test: Multiplex high-content protocol (nuclei gating, tubulin, mitochondrial mass, membrane permeability)
Type: cell-based, human
Conditions: U2OS; for mitochondrial mass increase detected / marked for tubulin effects while crossing no other phenotypic threshold: threshold > 50%; for viability at 1 µM: Homo sapiens, read-out: healthy nuclei; for tubulin effect / healthy nuclei (healthy cells) / increase in mitochondrial mass in comparison to DMSO: 10 µM; for tubulin effect / increase in mitochondrial mass in comparison to DMSO: healthy nuclei only
Description: Using the CQ1 high-content confocal microscope (Yokogawa), cellular shape and fluorescence was measured before and 12 h as well as 24 h after compound treatment. All compounds were diluted in DMSO to a concentration of 10 mM.
The rather large spacing distance was used to create a robust readout, compensating potential plate variations and enabling automated screening without the use of autofocus. The overlap of the fluorescence emission spectra of the dyes was neglectable for all but the MitoTracker Red and Annexin V Alexa Fluor 680 (Supplementary Figure S9).
All images were analyzed using the CellPathfinder software (Yokogawa). Segmentation of cells was performed as described earlier. First, the cells are classified in Hoechst High Intensity Objects or Normal Intensity Objects (Supplementary Table S7). All normal gated cells are further classified in healthy, fragmented or pyknosed nuclei (Supplementary Table S7). The pyknosed cells are gated in mitotic or apoptotic cells using seven features for the cell body and five features for the cell nuclei according to their Annexin V staining intensity (Supplementary Table S7). All cells that were classified as including a healthy nucleus are further gated into three phenotypic classes. […] Growth rate was calculated against non-treated cells and cells treated with DMSO 0.1% [61].

## CC(C)Oc1ccccc1C(=O)Nc1ccccc1C(=O)Nc1cccc(S(=O)(=O)C(F)(F)F)c1 [ML-290]
1 µM
  mitochondrial mass increase detected: mitochondrial mass increase

## CN1CCCC(n2nc(Cc3ccc(Cl)cc3)c3ccccc3c2=O)CC1 (centres unmarked) [azelastine]
1 µM
  mitochondrial mass increase detected: mitochondrial mass increase

## CCN1CCN(c2ccc(Nc3cc(N(C)C(=O)Nc4c(Cl)c(OC)cc(OC)c4Cl)ncn3)cc2)CC1 [infigratinib]
1 µM, 24 h
  viability at 1 µM: ≤ 40%

## CN([C@@H](Cc1ccc(OS(=O)(=O)c2cccc3cnccc23)cc1)C(=O)N1CCN(c2ccccc2)CC1)S(=O)(=O)c1cccc2cnccc12 [KN-62]
1 µM
  tubulin effects: > 90%

## Cc1[nH]c(/C=C2\C(=O)Nc3ccc(S(=O)(=O)N(C)c4cccc(Cl)c4)cc32)c(C)c1C(=O)N1CCN(C)CC1 [SU11274]
1 µM
  marked for tubulin effects while crossing no other phenotypic threshold: marked to have tubulin effects

## COc1ncc(-c2ccc3nccc(-c4ccnnc4)c3c2)cc1NS(=O)(=O)c1ccc(F)cc1F [omipalisib]
1 µM, 24 h
  viability at 1 µM: ≤ 40%
1 µM
  decrease of healthy nuclei count: more than 60%

## CN1CCN(Cc2ccc(Nc3ncc(Cl)c(Nc4ccccc4S(=O)(=O)N(C)C)n3)cc2)CC1 [TP0903]
1 µM, 24 h
  viability at 1 µM: ≤ 40%
1 µM
  decrease of healthy nuclei count: more than 60%

## CCC1=C[C@@H]2CN(C1)Cc1c([nH]c3ccccc13)[C@@](C(=O)OC)(c1cc3c(cc1OC)N(C)[C@H]1[C@@](O)(C(=O)OC)[C@H](OC(C)=O)[C@]4(CC)C=CCN5CC[C@]31[C@@H]54)C2 [vinorelbine tartrate]
24 h
  tubulin effect: increased tubulin effects

## COc1cc2c(Nc3ccc(NC(=O)c4ccccc4)cc3)ncnc2cc1OCCCN1CCOCC1 [ZM447439]
1 µM
  marked for tubulin effects while crossing no other phenotypic threshold: marked to have tubulin effects

## Cc1cc(C)c(-n2ccn3nc(-c4cccnc4)cc23)cc1NC(=O)c1cc(C#N)cc(S(F)(F)(F)(F)F)c1 [BAY-826]
1 µM
  marked for tubulin effects while crossing no other phenotypic threshold: marked to have tubulin effects

## Nc1c(C(=O)NCc2ccc(C(=O)NCCCC3CCCCC3)cc2)cnn1-c1ccccc1 [SR-318]
1 µM
  marked for tubulin effects while crossing no other phenotypic threshold: marked to have tubulin effects
24 h
  healthy nuclei (healthy cells): over 80%
  increase in mitochondrial mass in comparison to DMSO: over 60%
  tubulin effect: more than 90%

## c1ccc2oc(-c3csc(C4CCN(Cc5nc6ncccc6[nH]5)CC4)n3)cc2c1 [BAY-179]
24 h
  healthy nuclei (healthy cells): over 80%
  increase in mitochondrial mass in comparison to DMSO: over 60%

## CCn1cc(-c2ccnc3[nH]c(-c4cccc(CN(C)C)c4)cc23)c(-c2ccc(NC(=O)N(C)C)cc2)n1 [GSK1070916]
1 µM
  mitochondrial mass increase detected: mitochondrial mass increase

## Cc1ccc(NC(=O)Nc2cc(C(F)(F)F)ccc2F)cc1Nc1ccc2c(c1)NC(=O)/C2=C\c1ccc[nH]1 [GNF-5837]
1 µM, 24 h
  viability at 1 µM: ≤ 40%
1 µM
  decrease of healthy nuclei count: more than 60%

## CS(=O)(=O)N1CCCC(NC(=O)[C@H](CCC2CCCCC2)NC(=O)c2ccc(CNC(=O)c3cnc4ccccn34)cc2)C1 (some centres unmarked) [SR-302]
24 h
  tubulin effect: more than 90%

## CCNc1cc(NC2CCC(O)CC2)nc(Nc2ccc3c(ccn3Cc3ccccc3)c2)n1 (centres unmarked) [CINK4]
1 µM
  marked for tubulin effects while crossing no other phenotypic threshold: marked to have tubulin effects

## C=CCn1c(=O)c2cnc(Nc3ccc(N4CCN(C)CC4)cc3)nc2n1-c1cccc(C(C)(C)O)n1 [adavosertib]
1 µM, 24 h
  viability at 1 µM: ≤ 40%

## Cc1cc(C)cc(-c2cnc3cc(Cl)c(-c4cccc(O)c4)cc3c2OCCCN)c1 [TC-G 1003]
1 µM
  mitochondrial mass increase detected: mitochondrial mass increase

## CN1CCN(Cc2cc(NC(=O)c3ccc4c(c3)CN(c3ccccc3)CC4)cc(C(F)(F)F)c2)CC1 [DDR-TRK-1N]
1 µM, 24 h
  healthy nuclei: ≤ 40%

Reference: publication PMC8878468, “Image-Based Annotation of Chemogenomic Libraries for Phenotypic Screening” (Molecules, 2022)
